Source: patent US20100286093A1, “ANTI-INFLAMMATORY COMPOSITION CONTAINING DOCOSAHEXAENOYL LYSOPHOSPHATIDYLAMINE AS AN ACTIVE INGREDIENT” (The Industry & Academic Cooperation in Chungnam National …, priority 2009, published 2010)

Assays:
[1] = system: zymosan A induced plasma leakage; assay: Zymosan A induced plasma leakage in peritoneal fluid (Evans blue), intravenous injection; type: in vivo, mice
Description: To investigate inhibitory effect of docosahexaenoyl lysophosphatidylcholine on peritonitis induced by zymosan, the present inventors induced inflammation in abdominal cavity by injecting zymosan A (saccharomyces cerevisiae) (Sigma-Aldrich Corp, St. Louis, Mo., USA), and then administered lysophosphatidylcholine, followed by evaluation of anti-inflammatory effect. Particularly, SPF mice (6 weeks, male) were adapted for 12 hours and then raised in an animal laboratory at College of Pharmacy under 12/12 hour dark/light cycle. Then, the mice were used for intra-abdominal inflammatory response experiment. First, each experimental group was composed of 5˜10 mice, to which 10˜500 μg/kg of each lysophosphatidylcholine was injected through tail vein. The control group was injected with 50˜100 ul of saline. 30 minutes later, 0.5% Evans blue dye solution (0.2 ml) was injected through tail vein and then 100 ul of zymosan A (1 mg/ml) dissolved in saline was injected into abdominal cavity. 30 minutes after the administration, the mice were anesthetized lightly with ether or fluorine, followed by neck dissection. 4 ml of ice-cold PBS was injected into abdominal cavity and peritoneal fluid was recovered by using a plastic syringe, followed by centrifugation (3,000 rpm, 10 minutes). Supernatant was obtained from the centrifugation, with which exudation of Evans blue was measured by spectrophotometer at 620 nm to evaluate anti-inflammatory effect (Arita M, et al., Proc Natl Acad Sci USA. 2005 May 24; 102(21):7671-6; Takenaka M, et al., Biol Pharm Bull. 2005 July; 28(7):1291-3).
The present inventors measured time-dependent anti-inflammatory effect (inhibitory effect on zymosan A induced plasma leakage) of each lysophosphatidylcholine. Particularly, docosahexaenoyl lysophosphatidylcholine (50 μg/kg) was injected to mice through tail vein at different time intervals (15 minutes—120 minutes; […], 30 minutes, 60 minutes and 120 minutes before zymosan A administration). After administrating zymosan A ([…]) via intraperitoneal injection, Evans blue was treated, followed by measuring plasma leakage in peritoneal fluid.
Particularly, docosahexaenoyl lysophosphatidylcholine (50 μg/kg), docosahexaenoic acid (50 μg/kg) or 17-HPDHA lysophosphatidylcholine (17(S)-hydroperoxy-4,7,10,13,15,19-docosahexaenoyl lysophosphatidylcholine) were compared. Soybean LOX-1 (200 units/ml) was added in borax buffer (50 mM, pH 9.0) containing docosahexaenoyl lysophosphatidylcholine (20 uM), followed by reaction at 25° C. for 30 minutes, which was passed through C18 column (2×1 cm) and eluted with methanol (Huang L S, et al., J Agric Food Chem. 2008 Sep. 10; 56(17):7808-14)] (50 μg/kg) was treated to mice 30 minutes before zymosan A injection. 30 minutes later, plasma leakage in peritoneal fluid was measured.
The present inventors intravenously injected docosahexaenoyl lysophosphatidylethanolamine into mice at the concentration of 15˜150 μg/kg. 30 Min later, 100 ul of zymosan A(1 mg/ml) was treated thereto to induce inflammation in abdominal cavity. After administering 0.5% Evans blue, plasma leakage in peritoneal fluid was measured.

[2] = system: zymosan A induced plasma leakage; assay: Zymosan A induced plasma leakage in peritoneal fluid (Evans blue), intraperitoneal injection; type: in vivo, mice; conditions: i.p.
Description: The present inventors intraperitoneally injected docosahexaenoyl lysophosphatidylcholine or 17-HPDHA lysophosphatidylcholine (docosahexaenoyl lysophosphatidylcholine oxide) into mice at the concentration of 15˜150 μg/kg. The control group was injected with 50˜100 ul of saline. 2 Hours later, 0.5% Evans Blue dye solution (0.2 ml) was injected through tail vein, followed by intraperitoneal injection of 100 ul of zymosan A (1 mg/ml) dissolved in saline. 30 minutes later, the mice were slightly anesthetized with ether or fluorine, followed by neck dissection. 4 ml of ice-cold PBS was injected into abdominal cavity and peritoneal fluid was recovered by using a plastic syringe, followed by centrifugation (3,000 rpm, 10 minutes). Exudation of Evans blue was measured to evaluate anti-inflammatory effect.

RAW 264.7 cells = assay: LPS induced NO generation in RAW 264.7 cells (Griess reagent); type: cell-based
Source text: Macrophages are known to play an important role in inflammatory response and host defense. When macrophages are activated by lipopolysaccharide (LPS), a huge amount of NO (nitric oxide) is generated, which is mediated by inducible nitric oxide synthase (iNOS).
Based on that, the present inventors observed how unsaturated fatty acid containing lysophosphatidylcholine (lysoPC) affected the generation of NO, the inflammation mediator, induced by LPS in RAW 264.7 cells. Particularly, RAW 264.7 cells (5×10^4/well) were pre-cultured with each polyunsaturated lysophosphatidylcholine; linoleoyl lysophosphatidylcholine, arachidonoyl lysophosphatidylcholine and docosahexaenoyl lysophosphatidylcholine [prepared by the co-treatment with diacyl phosphatidylcholine (Avanti Polar Lipids, Alabaster, Ala., USA) and phospholipase A2 (PLA2, Sigma-Aldrich Corp, St. Louis, Mo., USA) (Croset, M. et al., Biochem. J. 2000, 345, 61-67; Adachi, J. et al., Kobe. J. Med. Sci. 2006, 52, 127-140)] (0˜60 uM) at 37° C. for 2 hours. Then, LPS (1 μg/ml) was added thereto, followed by culture for 20 hours under the same conditions as the above. […] Then, OD540 was measured to measure NO generation (Green L C, et al., Anal Biochem. 1982 October; 126(1):131-8).

Compound: 17(S)-hydroperoxy-4,7,10,13,15,19-docosahexaenoyl lysophosphatidylcholine [17-HPDHA lysophosphatidylcholine]
- inhibitory effect on plasma leakage (metabolite comparison) ([1]; 50 μg/kg, 30 minutes before zymosan A injection, compared to docosahexaenoyl lysophosphatidylcholine): a greater inhibitory effect
- inhibitory effect on zymosan induced plasma leakage ([2]; 15 μg/kg or higher, 2 hours before zymosan A): significant
- effectiveness in comparison with docosahexaenoyl lysophosphatidylcholine ([2]; 15~150 μg/kg): somewhat more effective than docosahexaenoyl lysophosphatidylcholine
- inhibition of zymosan induced plasma leakage, dose dependence ([2]; up to 150 μg/kg): dose-dependent

Compound: arachidonoyl lysophosphatidylcholine [reference compound]
- reduction of zymosan induced plasma leakage ([1]; 50 μg/kg i.v.): reduced plasma leakage significantly
- reduction of zymosan induced plasma leakage ([1]; 150 μg/kg i.v.): more peculiar
- reduction of zymosan induced plasma leakage ([1]; 500 μg/kg i.v., versus 150 μg/kg): this effect was not increased any more
- inhibition of NO generation induced by LPS (RAW 264.7 cells; 60 uM): ≤ 20%

Compound: CCCCC/C=C\C/C=C\CCCCCCCC(=O)OC[C@@H](O)COP(=O)([O-])OCC[N+](C)(C)C [linoleoyl lysophosphatidylcholine, reference compound]
- inhibition of zymosan induced plasma leakage, dose dependence ([1]; i.v., up to 500 μg/kg): did not show inhibitory effect
- inhibitory effect on NO generation induced by LPS (RAW 264.7 cells; up to 60 uM): did not show any significant inhibitory effect

Compound: docosahexaenoyl lysophosphatidylethanolamine
- inhibitory effect on zymosan A induced plasma leakage ([1]; i.v., 50 μg/kg or higher, 30 min before zymosan A): significant inhibitory effect
- inhibition of zymosan A induced plasma leakage, dose dependence ([1]; i.v., up to 150 μg/kg): inhibited zymosan A induced plasma leakage dose-dependently
